The target of the assay is Mitogen-activated protein kinase 1 (Homo sapiens) (UniProt P28482). Description: total ERK1/2 protein level change, either direction, late-stage follow-up, counter-screen for KLF5 inhibitor project, cell-based, HCT116 colorectal carcinoma, chemiluminescent western blot (AID 588642). Conditions: HCT116 ERK1/2 protein level, 24 h, at 10 µM, active compounds read high. On the technique in general: Counterscreens check selectivity or assay interference.

The source made the active and inactive calls.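 Rule for the calls: active = MAPK1 kinase protein level shifted by at least 30% from solvent-only cells, either down or up; inactive = shift in protein level under 30% either way.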

Sequence of Mitogen-activated protein kinase 1 (Homo sapiens) (P28482 whole entry, looked up): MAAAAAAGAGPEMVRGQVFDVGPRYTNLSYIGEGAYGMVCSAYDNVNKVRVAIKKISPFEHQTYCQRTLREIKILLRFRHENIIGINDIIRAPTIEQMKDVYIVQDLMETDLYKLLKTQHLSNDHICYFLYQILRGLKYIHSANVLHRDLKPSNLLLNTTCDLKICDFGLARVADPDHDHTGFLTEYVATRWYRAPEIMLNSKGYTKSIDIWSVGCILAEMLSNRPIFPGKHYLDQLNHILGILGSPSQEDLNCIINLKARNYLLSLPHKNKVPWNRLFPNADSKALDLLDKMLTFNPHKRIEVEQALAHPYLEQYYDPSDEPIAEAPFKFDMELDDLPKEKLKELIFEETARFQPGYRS

Turning to `CN(C(=O)CNC(=O)/C=C/c1cccc(Cl)c1)C1CCS(=O)(=O)C1` (stereo not drawn), the inhibition was 5.48% (inactive).

As to `CN(C(=O)CNC(=O)/C=C/c1cccc(Cl)c1)C1CCS(=O)(=O)CC1`, the inhibition was 3.03% (inactive). `CN(C(=O)COC(=O)/C=C/c1cccc([N+](=O)[O-])c1)C1CCS(=O)(=O)C1` (stereo not drawn): the inhibition was 4.62% (inactive).

By inhibition is commonly meant the percentage by which the read-out fell short of the control.

For the origin of these results see PubChem BioAssay AID588642 (The Scripps Research Institute Molecular Screening Center, 2011).
